Laboratory results taken from US20020061888A1, “Combination therapy for the prophylaxis and treatment of hyperlipidemic conditions and disorders” (priority 2000, published 2002).
“And” between values parts separate entries of the source, which are not always exact repeats. Equal values may be shown once. Marks after values point to notes of the source that are not given here.

Test system: Male beagle dogs
Test: Serum total cholesterol in beagle dogs (serum lipid measurements)
Format: in vivo
Details: for TOTAL SERUM CHOLESTEROL / SERUM TOTAL CHOLESTEROL: n = 6; for decrease in serum total cholesterol concentration: compared to vehicle
Method: Male beagle dogs (9-10 kg) obtained from Marshall farms were fed a normal chow diet once a day for a two hour interval and given water ad libitum. Prior to initiating treatment, the dogs were weighed and blood samples were drawn from the cephalic vein of each dog following an overnight fast to evaluate pretreatment serum total cholesterol levels at the start of the study. […] All doses were administered in gelatin capsules per os to each dog between 9:00-9:30 a.m. prior to feeding. All animals were fed between 9:30-10:00 a.m. and were allowed two hours to eat, at which time any remaining food was removed. […] Animals were dosed daily for three weeks and blood samples were taken at the end of each week after an overnight fast for comparison with pretreatment serum total cholesterol levels. Three consecutive 24 hour fecal samples were collected for each group during the last 72 hours of each week and used to measure the concentration of fecal biles acids excreted during that time period.
Blood was collected from the cephalic vein of each dog into serum separator tubes. The blood was centrifuged at 900×g for 20 minutes at room temperature and the serum decanted. All analyses were performed on a Cobas Mira Clinical Analyzer System (Roche Diagnostic Systems, Branchburg, N.J.) using Roche Diagnostic reagents for enzymatic determinations of serum cholesterol. Commercial calibrator and quality control materials were analyzed with each run to verify assay accuracy and precision. A two-tailed, paired Students t-test was used to determine the statistical significance of changes in serum total cholesterol in treated dogs compared to pretreatment values. A one-way analysis of variance (“ANOVA”) was used to compare each pair of treatment groups to determine the statistical significance of changes in serum total cholesterol.
Beagle dogs also were administered pravastatin to evaluate the monotherapeutic effect of pravastatin on serum total cholesterol.
Male beagle dogs (9-10 kg) obtained from Marshall farms were fed once a day for two hours and given water ad libitum. Prior to initiating treatment, blood samples were drawn from the cephalic vein of each dog to evaluate pretreatment total serum cholesterol levels at the start of the study.
For the dose ranging study, the dogs were assigned to one of five groups based on mean body weights and serum total cholesterol levels. Each group received one of the following dosages: (1) vehicle (empty capsule, afternoon dosing), (2) 3.0 mg/kg/day pravastatin (afternoon dosing), (3) 10 mg/kg/day pravastatin (afternoon dosing), (4) 30 mg/kg/day pravastatin (afternoon dosing), and (5) 10 mg/kg/day pravastatin (morning dosing). One capsule containing pravastatin was administered per os to each dog between 9:00-9:30 a.m. prior to feeding for the 10 mg/kg/day morning dosing group and between 2:30-3:00 p.m. for the afternoon dosing groups. All animals were fed between 9:30-10:00 a.m. and were allowed two hours to eat, at which time any remaining food was removed. […] Animals were dosed daily for four weeks and blood samples were taken at the end of each week after an overnight fast for comparison with pretreatment serum total cholesterol levels.
Following this initial four week dose-ranging study, dogs from the two groups receiving 10 mg/kg/day pravastatin (a.m. and p.m. dosing groups) were randomized into two new treatment groups based on serum total cholesterol levels to initiate the combination treatment study. […] Dosing continued in this manner for an additional four weeks (Weeks 5-8) with blood and 48-hour fecal samples collected at the end of each week for serum lipid measurements and fecal bile acid determinations, respectively.

With `CC[C@H](C)C(=O)O[C@H]1C[C@H](O)C=C2C=C[C@H](C)[C@H](CC[C@@H](O)C[C@@H](O)CC(=O)O)[C@H]21` [pravastatin, Pravastatin] the “% change in serum total cholesterol compared to the pretreatment value of each group” value (“% change in serum total cholesterol” for short) (pravastatin 10.0 mg/kg/day pm dosing, Week 3) was “(−19) %”, the “TOTAL SERUM CHOLESTEROL” value (pravastatin 10.0 mg/kg/day pm dosing, Week 3, mean ± SEM) was 128 ± 9^3 mg/dL and the “% change in serum total cholesterol” value (pravastatin 10.0 mg/kg/day pm dosing, Week 4) was “(−21) %”. For the same compound, the “TOTAL SERUM CHOLESTEROL” value (pravastatin 10.0 mg/kg/day pm dosing, Week 4, mean ± SEM) was 126 ±8 mg/dL and 126 ± 8^3 mg/dL, the “% change in serum total cholesterol” value (pravastatin 16.0 mg/kg/day, Week 1) was “(−8) %” and the “SERUM TOTAL CHOLESTEROL” value (pravastatin 16.0 mg/kg/day, Week 1, mean ± SEM) was 142 ± 8 mg/dL. The “% change in serum total cholesterol” value (pravastatin 16.0 mg/kg/day, Week 2) was “(−12) %”, the “SERUM TOTAL CHOLESTEROL” value (pravastatin 16.0 mg/kg/day, Week 2, mean ± SEM) was 137 ± 12^2 mg/dL and the “% change in serum total cholesterol” value (pravastatin 16.0 mg/kg/day, Week 3) was “(−14) %”. For the same compound, the “decrease in serum total cholesterol concentration” value (pravastatin 16.0 mg/kg/day, one week of treatment) was 8%, the “decrease in serum total cholesterol concentration” value (pravastatin 16.0 mg/kg/day, three weeks of treatment) was 14% and the “% change in serum total cholesterol” value (pravastatin 30.0 mg/kg/day pm dosing, Week 1) was “(+2) %”. For the same compound, the “TOTAL SERUM CHOLESTEROL” value (pravastatin 30.0 mg/kg/day pm dosing, Week 1, mean ± SEM) was 164 ± 10 mg/dL, the “% change in serum total cholesterol” value (pravastatin 30.0 mg/kg/day pm dosing, Week 2) was “(−18) %” and the “TOTAL SERUM CHOLESTEROL” value (pravastatin 30.0 mg/kg/day pm dosing, Week 2, mean ± SEM) was 132 ± 8^3 mg/dL. The “% change in serum total cholesterol” value (pravastatin 30.0 mg/kg/day pm dosing, Week 3) was “(−18) %”, the “TOTAL SERUM CHOLESTEROL” value (pravastatin 30.0 mg/kg/day pm dosing, Week 3, mean ± SEM) was 132 ± 11^3 mg/dL and the “% change in serum total cholesterol” value (pravastatin 30.0 mg/kg/day pm dosing, Week 4) was “(−20) %”. For the same compound, the “TOTAL SERUM CHOLESTEROL” value (pravastatin 30.0 mg/kg/day pm dosing, Week 4, mean ± SEM) was 128 ± 7^3 mg/dL, the “lowering of serum total cholesterol” value (pravastatin 30 mg/kg/day, four week dose ranging study) was 20% and the “total decrease in serum total cholesterol compared to the pretreatment value” (pravastatin monotherapy 10 mg/kg/day, Week 8) was 30%. For the same compound, the “% change from Week 0 in total serum cholesterol” value (pravastatin monotherapy 10 mg/kg/day, dosed Weeks 1-11, Week 1) was “(−2) %”, the “TOTAL SERUM CHOLESTEROL” value (pravastatin monotherapy 10 mg/kg/day, dosed Weeks 1-11, Week 1, mean ± SEM) was 157 ± 10 mg/dL and the “% change from Week 0 in total serum cholesterol” value (pravastatin monotherapy 10 mg/kg/day, dosed Weeks 1-11, Week 2) was “(−16) %”. The “TOTAL SERUM CHOLESTEROL” value (pravastatin monotherapy 10 mg/kg/day, dosed Weeks 1-11, Week 2, mean ± SEM) was 135 ± 17 mg/dL, the “% change from Week 0 in total serum cholesterol” value (pravastatin monotherapy 10 mg/kg/day, dosed Weeks 1-11, Week 3) was “(−18) %” and the “TOTAL SERUM CHOLESTEROL” value (pravastatin monotherapy 10 mg/kg/day, dosed Weeks 1-11, Week 3, mean ± SEM) was 132 ± 13 mg/dL. For the same compound, the “% change from Week 0 in total serum cholesterol” value (pravastatin monotherapy 10 mg/kg/day, dosed Weeks 1-11, Week 4) was “(−19) %”, the “TOTAL SERUM CHOLESTEROL” value (pravastatin monotherapy 10 mg/kg/day, dosed Weeks 1-11, Week 4, mean ± SEM) was 130 ± 9 [a] mg/dL and the “% change from Week 0 in total serum cholesterol” value (pravastatin monotherapy 10 mg/kg/day, dosed Weeks 1-11, Week 5) was “(−21) %”. The “TOTAL SERUM CHOLESTEROL” value (pravastatin monotherapy 10 mg/kg/day, dosed Weeks 1-11, Week 5, mean ± SEM) was 127 ± 9 [a] mg/dL, the “% change from Week 0 in total serum cholesterol” value (pravastatin monotherapy 10 mg/kg/day, dosed Weeks 1-11, Week 6) was “(−27) %” and the “TOTAL SERUM CHOLESTEROL” value (pravastatin monotherapy 10 mg/kg/day, dosed Weeks 1-11, Week 6, mean ± SEM) was 117 ± 10 [a] mg/dL. For the same compound, the “% change from Week 0 in total serum cholesterol” value (pravastatin monotherapy 10 mg/kg/day, dosed Weeks 1-11, Week 7) was “(−25) %”, the “TOTAL SERUM CHOLESTEROL” value (pravastatin monotherapy 10 mg/kg/day, dosed Weeks 1-11, Week 7, mean ± SEM) was 121 ± 7 [a] mg/dL and the “% change from Week 0 in total serum cholesterol” value (pravastatin monotherapy 10 mg/kg/day, dosed Weeks 1-11, Week 8) was “(−30) %”. For the same compound, the “TOTAL SERUM CHOLESTEROL” value (pravastatin monotherapy 10 mg/kg/day, dosed Weeks 1-11, Week 8, mean ± SEM) was 113 ±9 mg/dL and 113 ± 9 [a] mg/dL, the “% change from Week 0 in total serum cholesterol” value (pravastatin monotherapy 10 mg/kg/day, dosed Weeks 1-11, Week 9) was “(−26) %” and the “TOTAL SERUM CHOLESTEROL” value (pravastatin monotherapy 10 mg/kg/day, dosed Weeks 1-11, Week 9, mean ± SEM) was 119 ± 8 [a] mg/dL. The “% change from Week 0 in total serum cholesterol” value (pravastatin monotherapy 10 mg/kg/day, dosed Weeks 1-11, Week 10) was “(−27) %”, the “TOTAL SERUM CHOLESTEROL” value (pravastatin monotherapy 10 mg/kg/day, dosed Weeks 1-11, Week 10, mean ± SEM) was 118 ± 9 [a] mg/dL and the “% change from Week 0 in total serum cholesterol” value (pravastatin monotherapy 10 mg/kg/day, dosed Weeks 1-11, Week 11) was “(−27) %”. The “TOTAL SERUM CHOLESTEROL” value (pravastatin monotherapy 10 mg/kg/day, dosed Weeks 1-11, Week 11, mean ± SEM) was 118 ± 8 [a] mg/dL, the “% change from Week 0 in total serum cholesterol” value (pravastatin monotherapy group, dosing terminated after Week 11, Week 12) was “(−19) %” and the “TOTAL SERUM CHOLESTEROL” value (pravastatin monotherapy group, dosing terminated after Week 11, Week 12, mean ± SEM) was 131 ± 9 [a] mg/dL. The “% change from Week 0 in total serum cholesterol” value (pravastatin monotherapy group, dosing terminated after Week 11, Week 13) was “(−9) %”, the “TOTAL SERUM CHOLESTEROL” value (pravastatin monotherapy group, dosing terminated after Week 11, Week 13, mean ± SEM) was 147 ± 9 mg/dL and the “% change from Week 0 in total serum cholesterol” value (pravastatin monotherapy group, dosing terminated after Week 11, Week 14) was “(−11) %”. The “TOTAL SERUM CHOLESTEROL” value (pravastatin monotherapy group, dosing terminated after Week 11, Week 14, mean ± SEM) was 144 ± 12 mg/dL.
